# In patent US20130165396A1, “Apple Skin Extracts for Treating Cardiovascular Disease” (NATIONAL RESEARCH COUNCIL OF CANADA, priority 2010, published 2013):
# Marks after values point to notes of the source that are not given here.
# Experiments:
# Assay type in all cases: biochemical
# [1] = tested on: LDL isolated from human plasma; assay: TBARS assay, AAPH-induced LDL oxidation
# Experimental: (§1) To remove the inherent antioxidants, purchased LDL was dialyzed using Fisherbrand cellulose dialysis tubing (type T3 membrane, Thermo Fisher Scientific Inc., Ottawa, ON, Canada) against PBS containing 0.138 M NaCl and 0.0027 M KCl (pH 7.4, at 25° C.) at 4° C. for 24 hours. The buffer was changed every six hours. The dialyzed LDL was immediately used or stored at −80° C. in the dark under nitrogen and used within two to three weeks. Protein content of the dialyzed LDL was measured by the Lowry's method (Lowry et al., J. Biol. Chem., 1951, 193: […]) using bovine serum albumin as the standard.
# (§2) Two oxidation induction methods were used: copper sulfate and 2,2′-azobis(2-methylpropionamidine)dihydrochloride (AAPH). For both induction systems, 100 μg/mL of final LDL protein concentration was used. LDL was oxidized at the presence of 10 μM final concentration of Cu^2+and 5 mM final concentration of AAPH separately at 37° C. for 4 h in the dark. […] Oxidation was terminated by adding a 1:1 mixture of 1 mM solution of ethylenediaminetetraacetic acid (EDTA) and 1 mM solution of butylated hydroxytoluene (BHT).
# (§3) Two main constituents of TAE and oleanolic acid, which is an isomer of ursolic acid, were also used to investigate the concentration-responsiveness. The same concentrations of Cu^2+ and AAPH were used and the oxidation was terminated by a 1:1 mixture of EDTA and BHT as explained earlier under this section.
# (§4) TBARS were measured according to the method of Xu et al., J. Food Sci., 2007, 72: S522-S527 with slight modifications. […] The mixture was incubated at 95° C. for 30 min to develop a pink chromogen. After cooling to room temperature tubes were centrifuged at 1500 g for 15 min and the fluorescence was measured using the FLUOstar OPTIMA plate reader (BMG Labtech Inc. Canada). Excitation and emission wavelengths used were 532 and 590 nm, respectively. TBARS activity was expressed as the percent inhibition (Equation 1) of LDL oxidation with comparison to the positive control, where F is fluorescence:
# (§5) Percent inhibition (%)=100(Fpositive control−Fsample)/(Fpositive control) (1)
# [2] = tested on: LDL isolated from human plasma; assay: TBARS assay, Cu2+-induced LDL oxidation
# Experimental: as §1, §2, §3, §4, §5
# [3] = tested on: LDL isolated from human plasma; assay: In vitro LDL oxidation inhibition, statements covering both induction systems or both product types
# Experimental: as §2, §3
# TBARS were measured according to the method of Xu et al., J. Food Sci., 2007, 72: S522-S527 with slight modifications. […]. The mixture was incubated at 95° C. for 30 min to develop a pink chromogen. After cooling to room temperature tubes were centrifuged at 1500 g for 15 min and the fluorescence was measured using the FLUOstar OPTIMA plate reader (BMG Labtech Inc. Canada). Excitation and emission wavelengths used were 532 and 590 nm, respectively. TBARS activity was expressed as the percent inhibition (Equation 1) of LDL oxidation with comparison to the positive control, where F is fluorescence:
# The formation of hydroperoxides was measured by the lipid compatible formulation of the Peroxoquant™ quantitative peroxide assay kit. LDL oxidation was induced by Cu^2+ or AAPH and incubated for 4 hrs at 37° C. in the dark. Hydroperoxides were measured following the manufacturer's instructions. Absorbance was measured at 595 nm using FLUOstar OPTIMA plate reader (BMG Labtech, Durham, N.C., USA). Activity of hydroperoxides was expressed as the percent inhibition of LDL with comparison to the positive control (Equation 1).
# [4] = 50 mg L^−1, comparison of constituent compounds and metabolites (Table 4)
SMILES,"Percent inhibition of secondary LDL oxidation products, AAPH induction [1, 4]","Percent inhibition of secondary LDL oxidation products, Cu induction [2, 4]","Percent inhibition of secondary LDL oxidation products, AAPH induction ([1]; 1 mg L^−1)","Percent inhibition of secondary LDL oxidation products, AAPH induction ([1]; 10 mg L^−1)","Percent inhibition of secondary LDL oxidation products, AAPH induction ([1]; 50 mg L^−1)","Percent inhibition of secondary LDL oxidation products, Cu induction ([2]; 1 mg L^−1)","Percent inhibition of secondary LDL oxidation products, Cu induction ([2]; 10 mg L^−1)","Percent inhibition of secondary LDL oxidation products, Cu induction ([2]; 50 mg L^−1)","Percent inhibition of secondary LDL oxidation products, AAPH induction ([1]; 100 mg L^−1)","Percent inhibition of secondary LDL oxidation products, AAPH induction ([1]; 200 mg L^−1)","Percent inhibition of secondary LDL oxidation products, AAPH induction ([1]; 300 mg L^−1)","Percent inhibition of secondary LDL oxidation products, AAPH induction ([1]; 400 mg L^−1)","Percent inhibition of secondary LDL oxidation products, AAPH induction ([1]; 500 mg L^−1)","Percent inhibition of secondary LDL oxidation products, Cu induction ([2]; 100 mg L^−1)","Percent inhibition of secondary LDL oxidation products, Cu induction ([2]; 200 mg L^−1)","Percent inhibition of secondary LDL oxidation products, Cu induction ([2]; 300 mg L^−1)","Percent inhibition of secondary LDL oxidation products, Cu induction ([2]; 400 mg L^−1)","Percent inhibition of secondary LDL oxidation products, Cu induction ([2]; 500 mg L^−1)",further results
O=C(/C=C/c1ccc(O)c(O)c1)O[C@@H]1C[C@](O)(C(=O)O)C[C@@H](O)[C@H]1O [Chlorogenic acid],100.18 ± 3.29^b %,126.30 ± 1.45^a %,,,,,,,,,,,,,,,,,
O=C(O)[C@H]1O[C@@H](Oc2c(-c3ccc(O)c(O)c3)oc3cc(O)cc(O)c3c2=O)[C@H](O)[C@@H](O)[C@@H]1O [Quercetin-3-glucuronic acid],74.24 ± 1.36^d %,49.40 ± 2.04^d %,13.31 ± 1.79^ef %,80.74 ± 3.27^a %,72.00 ± 0.97^ab %,88.59 ± 0.21^b %,94.2 ± 31.32^ab %,98.64 ± 0.47^a %,,,,,,,,,,,"Percent inhibition of secondary LDL oxidation products, AAPH induction ([1]; 0.0005 mg L^−1): 11.79 ± 2.10^f %; Percent inhibition of secondary LDL oxidation products, AAPH induction ([1]; 0.001 mg L^−1): 26.29 ± 1.68^d %; Percent inhibition of secondary LDL oxidation products, AAPH induction ([1]; 0.005 mg L^−1): 24.12 ± 1.53^de %; Percent inhibition of secondary LDL oxidation products, AAPH induction ([1]; 0.01 mg L^−1): −1.96 ± 3.37^g %; Percent inhibition of secondary LDL oxidation products, AAPH induction ([1]; 0.5 mg L^−1): 4.32 ± 1.18^fg %; Percent inhibition of secondary LDL oxidation products, AAPH induction ([1]; 5 mg L^−1): 55.17 ± 0.33^c %; Percent inhibition of secondary LDL oxidation products, AAPH induction ([1]; 25 mg L^−1): 66.69 ± 2.41^b %; Percent inhibition of secondary LDL oxidation products, Cu induction ([2]; 0.0005 mg L^−1): 10.73 ± 1.68^e %; Percent inhibition of secondary LDL oxidation products, Cu induction ([2]; 0.001 mg L^−1): 23.06 ± 2.97^d %; Percent inhibition of secondary LDL oxidation products, Cu induction ([2]; 0.005 mg L^−1): 15.68 ± 2.22^e %; Percent inhibition of secondary LDL oxidation products, Cu induction ([2]; 0.01 mg L^−1): 14.85 ± 0.80^e %; Percent inhibition of secondary LDL oxidation products, Cu induction ([2]; 0.5 mg L^−1): 71.09 ± 1.34^c %; Percent inhibition of secondary LDL oxidation products, Cu induction ([2]; 5 mg L^−1): 90.37 ± 2.31^b %; Percent inhibition of secondary LDL oxidation products, Cu induction ([2]; 25 mg L^−1): 95.24 ± 0.71^ab %; Protection against LDL oxidation, quercetin metabolites (statement) ([3]; 50 mg L^−1): best protection; Pro-oxidant effect (statement) ([3]; 5-50 mg L^−1): did not show any pro-oxidant effect"
O=c1c(O[C@@H]2O[C@H](CO)[C@@H](O)[C@H](O)[C@H]2O)c(-c2ccc(O)c(O)c2)oc2cc(O)cc(O)c12 [Quercetin-3-O-glucoside],138.25 ± 1.97^a %,104.13 ± 0.48^ab %,,,,,,,,,,,,,,,,,
C[C@H]1[C@H](C)CC[C@]2(C(=O)O)CC[C@]3(C)C(=CC[C@@H]4[C@@]5(C)C[C@@H](O)[C@H](O)C(C)(C)[C@@H]5CC[C@]43C)[C@H]12 [Corosolic acid],,,6.09 ± 1.83^d %,5.69 ± 1.46^d %,32.80 ± 5.49^bc %,−17.84 ± 5.15^ab %,3.17 ± 4.20^a %,−6.04 ± 3.62^ab %,29.84 ± 2.89^c %,45.49 ± 3.46^ab %,47.55 ± 1.17^a %,51.18 ± 1.73^a %,46.63 ± 3.91^a %,−24.94 ± 2.90^be %,−54.17 ± 5.21^d %,−49.93 ± 3.74^d %,−39.57 ± 3.91^cd %,−0.50 ± 5.98^a %,AAPH-induced LDL oxidation inhibition ([1]; greater than 200 mg L^−1): more than 40%; Protection against Cu2+-induced LDL oxidation (statement) [2]: did not show any protection
COc1cc(-c2oc3cc(O)cc(O)c3c(=O)c2OC2OC(C(=O)O)C(O)C(O)C2O)ccc1O (stereo not drawn) [Isorhamnetin-3-glucuronic acid],51.79 ± 1.27^e %,20.28 ± 1.49^e %,,,,,,,,,,,,,,,,,
C[C@H]1[C@H](C)CC[C@]2(C(=O)O)CC[C@]3(C)C(=CC[C@@H]4[C@@]5(C)CC[C@H](O)C(C)(C)[C@@H]5CC[C@]43C)[C@H]12 [Ursolic acid],,,−16.71 ± 1.72^d %,−16.51 ± 2.32^d %,24.25 ± 2.54^c %,7.10 ± 1.52^c %,−5.10 ± 0.69^d %,19.08 ± 2.59^c %,54.07 ± 2.88^b %,49.91 ± 3.26^b %,71.45 ± 5.14^a %,54.20 ± 2.50^b %,46.52 ± 2.39^b %,16.73 ± 1.49^c %,36.62 ± 5.69^a %,34.93 ± 5.08^ab %,42.45 ± 1.02^a %,39.63 ± 3.85^a %,Concentration giving a greater protection against AAPH-induced LDL oxidation [1]: 300 mg/L; Inhibiting peroxyl-radical-induced LDL oxidation compared to corosolic and oleanolic acids (statement) [1]: more effective; Protection for AAPH-induced LDL oxidation ([1]; beyond 100 mg L^−1): more than 40%; Protection against Cu2+-induced LDL oxidation (statement) [2]: a certain degree of protection
OC[C@H]1O[C@@H](Oc2cc3c(O)cc(O)cc3[o+]c2-c2ccc(O)c(O)c2)[C@H](O)[C@@H](O)[C@H]1O [Cyanidin-3-O-galactoside],70.43 ± 1.23^d %,104.31 ± 2.25^ab %,,,,,,,,,,,,,,,,,Cu2+-induced LDL oxidation (statement) ([2]; 50 mg L^−1): promising results
O=c1c(O)c(-c2ccc(O)c(OS(=O)(=O)O)c2)oc2cc(O)cc(O)c12 [Quercetin-3′-sulfate],59.63 ± 1.90^e %,38.11 ± 1.84^de %,,,,,,,,,,,,,,,,,
CC1(C)CC[C@]2(C(=O)O)CC[C@]3(C)C(=CC[C@@H]4[C@@]5(C)CC[C@H](O)C(C)(C)[C@@H]5CC[C@]43C)[C@@H]2C1 [Oleanolic acid],,,17.57 ± 8.28^b %,31.90 ± 0.95^ab %,37.43 ± 1.98^a %,12.06 ± 2.46^a %,−3.01 ± 3.42^ab %,12.30 ± 2.73^a %,30.69 ± 3.22^ab %,16.75 ± 4.41^b %,26.13 ± 3.09^ab %,26.20 ± 4.41^ab %,29.17 ± 1.58^ab %,−13.37 ± 5.59^b %,−47.00 ± 3.05^c %,−94.49 ± 4.34^d %,−74.73 ± 5.82^d %,−78.32 ± 4.31^d %,Protection for AAPH-induced LDL oxidation ([1]; 10-100 mg L^−1): around 30%
